# Source: US20250197864A1, “LNCRNA TRANSCRIPTS IN MELANOMAGENESIS” (The Regents of the University of California, priority 2021, published 2025)
# Tested on: gene expression in D04 melanoma cells
# Test: RNA-Seq differential expression analysis (DESeq2)
# Type: cell-based, human
# Description: Total RNA was isolated using the RNeasy mini Kit (QIAGEN) following the manufacturer's protocol. Quality check for extracted RNA was done using 2100 Bioanalyzer (Agilent Technologies, USA) or Tapestation System (Agilent Technologies, USA). […] For samples used for identification of MAPK-responsive lncRNAs, paired-end, 101-bp sequencing was performed by Centrillion Genomic Services (Centrillion Biosciences, USA) on an Illumina HiSeq 2000. For DE gene analysis of ASO-transfected D04 samples, paired-end, 2×150-bp sequencing was performed by Genewiz (USA) on a Illumina HiSeq.
# Sequence reads were aligned to the human genome (hg19) using TopHat (Version 2.0.11).
# Differential expression (DE) analysis was done using DESeq2. Differentially expressed genes were defined by more than 1.5-fold changes (log 2 >0.58 or <−0.58) in expression with FDR<0.05. GO term analysis was done using DAVID Functional Annotation Clustering analysis.
# To examine the biomolecular changes upon TRASH-inhibition in melanoma, D04 cells were treated with TRASH-ASOs (SEQ ID NO:15) and Control-ASOs and RNA was extracted and used for RNA-Seq. […] These GO terms consisted of genes encoding growth factors, tyrosine kinases, G protein coupled receptor subunits, and collagen subunits. Scatter plot diagram showing differential gene expression after TRASH-ASO treatment compared to Control-ASO treatment. (cut-off for significance was adjusted p-value <0.05). Data was obtained from RNA-Seq of D04 melanoma cells, treatment period was three days. (FIG. 5c)
sequence,measurement,setting,value
"GACTGGAGATAATTAA (gapmer, pattern not given here) [SEQ ID NO: 15, GapmeR ASO targeting AC004540.4 (TRASH), exon region of both isoforms; used for in vitro experiments]",log2FoldChange AC010327.3,"ENSG00000267577, up-regulated list",1.04
same,log2FoldChange CARD8-AS1,"ENSG00000268001, up-regulated list",0.7573
same,log2FoldChange AC005261.3,"ENSG00000268713, up-regulated list",0.7391
same,log2FoldChange AL513477.1,"ENSG00000269896, up-regulated list",1.066
same,log2FoldChange AL606834.1,"ENSG00000269906, up-regulated list",0.6043
same,log2FoldChange ZNF559-ZNF177,"ENSG00000270011, up-regulated list",0.8965
same,log2FoldChange AC112220.2,"ENSG00000271020, up-regulated list",0.8814
same,log2FoldChange AC112220.4,"ENSG00000271643, up-regulated list",0.8013
same,log2FoldChange AC004890.3,"ENSG00000271664, up-regulated list",0.9879
same,log2FoldChange AL365181.3,"ENSG00000272405, up-regulated list",1.112
same,log2FoldChange AL365203.2,"ENSG00000273038, up-regulated list",0.6423
same,log2FoldChange AC037198.1,"ENSG00000276107, up-regulated list",0.6896
same,log2FoldChange AC245041.2,"ENSG00000276850, up-regulated list",1.06
same,log2FoldChange ENSG00000279184 (Gene.name NA),"ENSG00000279184, up-regulated list",0.592
same,log2FoldChange AC005261.5,"ENSG00000279541, up-regulated list",0.6302
same,log2FoldChange AC104581.4,"ENSG00000280046, up-regulated list",0.8564
same,log2FoldChange UCKL1-AS1,"ENSG00000280213, up-regulated list",0.6201
same,log2FoldChange LINC01173,"ENSG00000280744, up-regulated list",0.9254
same,log2FoldChange AC139493.2,"ENSG00000283235, up-regulated list",0.8882
same,log2FoldChange,EPHA3 (ENSG00000044524),−0.647
same,log2FoldChange,ETS2 (ENSG00000157557),1.279
same,log2FoldChange,EVI2A (ENSG00000126860),1.514
same,log2FoldChange,EXOC3L2 (ENSG00000283632),−0.6947
same,log2FoldChange,FAM129A (ENSG00000135842),−0.6591
same,log2FoldChange,FAM172BP (ENSG00000175841),2.273
same,log2FoldChange,FAM180A (ENSG00000189320),2.047
same,log2FoldChange,FAM198B-AS1 (ENSG00000248429),−0.6307
same,log2FoldChange,FBXO2 (ENSG00000116661),−0.638
same,log2FoldChange,FBXO9 (ENSG00000112146),−0.5825
same,log2FoldChange,FBXO40 (ENSG00000163833),1.589
same,log2FoldChange,FGF1 (ENSG00000113578),−0.5817
same,log2FoldChange,FHDC1 (ENSG00000137460),−0.7072
same,log2FoldChange,FOSB (ENSG00000125740),2.191
same,log2FoldChange,FRK (ENSG00000111816),−0.6911
same,log2FoldChange,FRRS1 (ENSG00000156869),−0.5906
same,log2FoldChange,FYN (ENSG00000010810),−0.6273
same,log2FoldChange,GABRA3 (ENSG00000011677),−0.5841
same,log2FoldChange,GAPDHP33 (ENSG00000240244),1.514
same,log2FoldChange,GAREM1 (ENSG00000141441),−0.6261
same,log2FoldChange,GAS1 (ENSG00000180447),−0.6542
same,log2FoldChange,GAS7 (ENSG00000007237),−0.5864
same,log2FoldChange,GGT5 (ENSG00000099998),−0.6741
same,log2FoldChange,GNG2 (ENSG00000186469),−0.6003
same,log2FoldChange,GNGT2 (ENSG00000167083),1.241
same,log2FoldChange,GPR162 (ENSG00000250510),−0.5935
same,log2FoldChange,GPRIN3 (ENSG00000185477),−0.66
same,log2FoldChange,GSG1 (ENSG00000111305),2.332
same,log2FoldChange,H2BFWT (ENSG00000123569),2.336
same,log2FoldChange,HDAC2-AS2 (ENSG00000228624),1.256
same,log2FoldChange,HDAC4 (ENSG00000068024),−0.5923
same,log2FoldChange,HEY1 (ENSG00000164683),−0.6645
same,log2FoldChange,HHIPL2 (ENSG00000143512),−0.6841
same,log2FoldChange,HID1 (ENSG00000167861),1.325
same,log2FoldChange,HLA-DMA (ENSG00000204257),−0.582
same,log2FoldChange,HLA-DMB (ENSG00000242574),−0.6646
same,log2FoldChange,HLA-DPB1 (ENSG00000223865),−0.696
same,log2FoldChange,HLA-DRA (ENSG00000204287),−0.641
same,log2FoldChange,HLA-V (ENSG00000181126),1.398
same,log2FoldChange,HS6ST2 (ENSG00000171004),−0.588
same,log2FoldChange,HSD3B1 (ENSG00000203857),−0.6356
same,log2FoldChange,HSPA2 (ENSG00000126803),−0.6741
same,log2FoldChange,IFI27 (ENSG00000165949),−0.6194
same,log2FoldChange,IFI27L1 (ENSG00000165948),−0.5945
same,log2FoldChange,IGFBP5 (ENSG00000115461),−0.631
same,log2FoldChange,IGSF11 (ENSG00000144847),−0.5994
same,log2FoldChange,IL24 (ENSG00000162892),2.412
same,log2FoldChange,IMMP2L (ENSG00000184903),−0.6662
same,log2FoldChange,ITGB2 (ENSG00000160255),1.646
same,log2FoldChange,KCNK1 (ENSG00000135750),4.668
same,log2FoldChange,KCNQ5 (ENSG00000185760),−0.6919
same,log2FoldChange,KIAA0319L (ENSG00000142687),−0.5992
same,log2FoldChange,KIF1A (ENSG00000130294),6.604
same,log2FoldChange,KIRREL1 (ENSG00000183853),−0.6846
same,log2FoldChange,KISS1 (ENSG00000170498),1.679
same,log2FoldChange,KITLG (ENSG00000049130),−0.5925
same,log2FoldChange,KLK2 (ENSG00000167751),2.321
same,log2FoldChange,KRT15 (ENSG00000171346),1.605
same,log2FoldChange,KRT34 (ENSG00000131737),3.32
same,log2FoldChange,KRT73-AS1 (ENSG00000257495),2.888
same,log2FoldChange,KRT75 (ENSG00000170454),1.915
same,log2FoldChange,LBH (ENSG00000213626),−0.6972
same,log2FoldChange,LCK (ENSG00000182866),1.307
same,log2FoldChange,LCN2 (ENSG00000148346),1.647
same,log2FoldChange,LDHD (ENSG00000166816),1.623
same,log2FoldChange,LDLR (ENSG00000130164),−0.588
same,log2FoldChange,LIFR (ENSG00000113594),−0.5862
same,log2FoldChange,LINC00520 (ENSG00000258791),2.38
